The source of these data is ChEMBL document CHEMBL3045287, “Synthesis and antimicrobial activity of morpholinyl/piperazinylbenzothiazines” (2012).

Experiment [1] concerns Escherichia coli. Description: Antimicrobial activity against Escherichia coli at 30 ug/ml after 24 hr by well diffusion assay. It counts as functional. Particulars: read-out: IZ.
The test system of experiment [2] is Bacillus cereus. Description: Antimicrobial activity against Bacillus cereus at 30 ug/ml after 24 hr by well diffusion assay. It counts as functional. Particulars: read-out: IZ. Background: A growth-free zone around the sample is the usual read-out of agar diffusion tests.

`CC1=C(C(=O)N2CCN(CCO)CC2)Sc2cc(Cl)ccc2N1`: the zone of inhibition at 30 µg/mL in experiment [1] worked out at 11 mm; in experiment [2], 9 mm.
The matching figures for `CC1=C(C(=O)N2CCOCC2)Sc2cc(C)ccc2N1`: 12 mm and 9 mm.
Taken in the same sequence, the figures for `CC1=C(C(=O)N2CCN(CCO)CC2)Sc2ccccc2N1` were 9 mm and 7 mm.
Taken in the same sequence, the figures for `CC1=C(C(=O)N2CCOCC2)Sc2cc(Cl)ccc2N1` were 8 mm and 8 mm.
Turning to `CC1=C(C(=O)N2CCOCC2)Sc2ccccc2N1`, the zone of inhibition at 30 µg/mL was 9 mm in experiment [1] and 12 mm in experiment [2].
Taken in the same sequence, the figures for `Cc1ccc2c(c1)SC(C(=O)N1CCOCC1)=C(C(C)C)N2` were 7 mm and 10 mm.
Taken in the same sequence, the figures for `O=C(N[C@H](CO)[C@H](O)c1ccc([N+](=O)[O-])cc1)C(Cl)Cl` [CHLORAMPHENICOL] were 9 mm and 10 mm.
